The source of these data is patent publication US20050054103A1, “Expansion of renewable stem cell populations using modulators of PI 3-kinase” (priority 2003, published 2005).

Series [1] concerns Lin− c-kit+ Sca-1+ murine hematopoietic precursors. The note with it: cultured 7 days; cited from earlier work.
In a further series the test system is CD34 cells. The experiment in a line: Transition metal chelators in CD34+ cell liquid cultures (cell number, CD34 cells, clonability). The series is classed as cell-based, human. Here is the method: The interphase layer of mononuclear cells were collected, washed three times with Ca/Mg free phosphate buffered saline containing 1% bovine serum albumin (BSA). The cells were incubated for 30 min. at 4° C. with murine monoclonal anti CD34 antibody (0.5 μg/10^6 mononuclear cells) and thereafter isolated using the miniMACS apparatus (Miltenyi-Biotec, Bergisch, Gladbach, Germany) according to the manufacturer's protocol.
Culture procedures: For the expansion of progenitor cells, CD34^+ enriched fractions or unseparated mononuclear cells were seeded at about 1-3×10^4 cells/ml in either alpha minimal essential medium containing 10% preselected fetal calf serum (FCS) (both from GIBCO, Grand Island, N.Y.), or serum-free medium (Progenitor-34 medium, Life Technologies, Grand Island, N.Y.). The media were supplemented with a mixture of growth factors and transition metal chelators. The cultures were incubated at 37° C. in an atmosphere of 5% CO2 in air with extra humidity. Half of the medium was changed weekly with fresh medium containing all the supplements.
Cloning potential evaluations: The cloning potential of cells developed in the liquid culture was assayed, at different intervals, in semi-solid medium. The cells were washed and seeded in 35 mm dishes in methylcellulose containing alpha medium supplemented with recombinant growth factors (SCF, G-CSF, GM-CSF and EPO). Following 2 weeks incubation, the cultures were scored with an inverted microscope. Colonies were classified as blast, mixed, erythroid, myeloid, and megakaryocytic, according to their cellular composition.
Morphological assessment: In order to characterize the resulting culture populations, aliquots of cells were deposited on a glass slide (cytocentrifuge, Shandon, Runcorn, UK), fixed and stained in May-Grunwald Giemsa. Other aliquots were stained by benzidine for intracellular hemoglobin.
Immunofluorescence staining: At different intervals, cells from the liquid cultures were assayed for CD34 antigen. Aliquots were harvested, washed and incubated on ice with FITC-labeled anti CD45 monoclonal antibody and either PE-labeled anti CD34 (HPCA-2) monoclonal antibody or PE-labeled control mouse Ig. After incubation, red cells were lysed with lysing solution, while the remaining cells were washed and analyzed by flow cytometer.
Flow cytometry: Cells were analyzed and sorted using FACStar^plus flow cytometer (Becton-Dickinson, Immunofluorometry systems, Mountain View, Calif.). Cells were passed at a rate of 1,000 cells/second through a […] nozzle, using saline as the sheath fluid. […] The PMTs was set at the appropriate voltage. Logarithmic amplification was applied for measurements of fluorescence and linear amplification—for forward light scatter. At least 10^4 cells were analyzed.
Cord blood-derived CD34 cells were plated in liquid culture in the presence of: FL—50 ng/ml, SCF—50 ng/ml, IL-6—50 ng/ml, with or without IL-3—20 ng/ml, with or without TEPA—10 μM. On day 7, the percentage of CD34 cells and the total cell number were determined. Aliquots equivalent to 1×10^3 initiating cells were assayed on days 0 and 7 for colony forming cells (CFU) by cloning in semi-solid medium. CFU expansion represents the ratio of CFU present on day 7 to CFU present on day 0.
CD34^+ cells derived from human neonatal cord blood were purified by immunomagnetic method and then cultured in liquid medium supplemented with cytokines either with or without transition metal chelators. At weekly intervals, the cultures were demi-depopulated by removing half of the culture content (supernatant and cells) and replacing it with fresh medium, cytokines and the chelators. At the indicated weeks the cellular content of the cultures were quantified for total cells (by a manual microscopic/hemocytometric method), for CD34^+ cells (by immuno-flow cytometry) and for clonogenic cells (by cloning the cells in cytokine-supplemented semi-solid medium).

Series [2] deals with cord blood-derived CD34+ cells. The experiment in a line: Copper-chelating peptides in CD34 cell cultures (proliferation, clonability). The series is classed as cell-based, human. The note with it: after 7 weeks; peptides 10 μM each, G-CSF and GM-CSF 10 ng/ml each. As for the experimental part: CD34 cells selection: Peripheral blood “buffy coat” cells derived from a whole blood unit, peripheral blood cells obtained following leukapheresis, or blood cells were layered on Ficoll-Hypaque (density 1.077 g/ml) and centrifuged at 1,000×g for 20 minutes at room temperature. The interphase layer of mononuclear cells were collected, washed three times with Ca/Mg free phosphate buffered saline containing 1% bovine serum albumin (BSA). The cells were incubated for 30 minutes at 4° C. with murine monoclonal anti CD34 antibody (0.5 μg/10^6 […] cells) and thereafter isolated using the miniMACA apparatus (Miltenyi-Biotec, Bergisch, Gladbach, Germany) according to the manufacturer's protocol.
Culture procedures: For the expansion of progenitor cells, CD34^+ enriched fractions were seeded at 1×10^4 cells/ml in alpha minimal essential medium containing 10% preselected fetal calf serum (FCS) (both from GIBCO, Grand Island, N.Y.). The medium was supplemented with a mixture of growth factors and Copper chelators. The cultures were incubated at 37° C. in an atmosphere of 5% CO2 in air with extra humidity. Half of the medium was changed weekly with fresh medium containing all the supplements.
The cloning potential of the cultured cells was assayed in semi-solid medium. The cells were washed and seeded in 35 mm dishes in methylcellulose containing alpha medium supplemented with 30% FCS and further with recombinant growth factors (stem cell factor (SCF), G-CSF, GM-CSF and erythropoietin (EPO)). Following two week incubation, the cultures were scored with an inverted microscope. Colonies were classified as blast, mixed, erythroid, myeloid, and megakaryocytic, according to their cellular composition.
The effect of Copper-chelating peptides on proliferation and clonability in CD34 cell cultures: Cultures were initiated with 10^4 cord blood-derived CD34^+ cells by plating purified cells in liquid medium in the presence of SCF, FLT3 and IL-6 (50 ng/ml each) and the Copper-binding peptides, Gly-Gly-His (GGH) or Gly-His-Lys (GHL) (10 μM each), or the late-acting cytokines G-CSF and GM-CSF (10 ng/ml each). At weekly intervals, the cultures were demi-depopulated and supplemented with fresh medium, cytokines and the peptides. After 7 weeks, cells were counted and assayed for CFUc.

The conditions of series [3]: cited from earlier work.
For series [4], the system named is CD34+ cells. The series can be described thus: Ex vivo expansion of CD34+ cells with the PI 3-kinase inhibitor Ly294002. It counts as cell-based, human. Here is the method:
Mononuclear cell fraction collection and purification: Human blood cells were obtained from umbilical cord blood from female patients following full-term, normal delivery (informed consent was obtained). Samples were collected and processed within 12 hours postpartum. […] Louis, Mo.), sedimented for 30 minutes to remove most red blood cells. The leukocyte-rich fraction was harvested and layered on a Ficoll-Hypaque gradient (1.077 gram/ml; Sigma), and centrifuged at 400 g for 30 minutes. […] Sigma, St. Louis, Mo.). Purification of CD34^+ cells from mononuclear cell fractions: To purify CD34^+ mononuclear cells, the mononuclear cell fraction was subjected to two cycles of immuno-magnetic separation using the MiniMACS® or […]® CD34 Progenitor Cell Isolation Kit (Miltenyi Biotec, Auburn, Calif.) as per manufacturer's recommendations. The purity of the CD34^+ population obtained ranged from 95% to 98%, as determined by flow cytometry (see below). Ex vivo expansion: Purified CD34+ cells were cultured in culture bags (American Fluoroseal Co. Gaithersburg, Md., USA) at a concentration of 1×10^4 cells/ml in MEMα/10% FCS containing the following human recombinant cytokines: […] The cultures were replenished weekly, for three weeks, with the same volume of fresh medium, Ly294002 and growth factors. From week three and up to the termination of the experiments the cultures were weekly demi-depopulated. Cells were counted following staining with trypan blue. At various time points, harvested cells were used to assay the content of colony forming units in culture (CFUc), enumeration of CD34+ cells following re-selection and immunophenotype analysis. Cell morphology was determined on cytospin (Shandon, Pittsburgh, Pa., USA) prepared smears stained with May-Grunwald/Giemsa solutions. Surface antigen analysis: The cells were washed with a PBS solution containing 1% BSA, and stained (at 4° C. for 30 min) with fluorescein isothiocyanate (FITC)- or phycoerythrin (PE)-conjugated antibodies. The cells were then washed in the above buffer and analyzed using a FACScalibur® flow cytometer (Becton Dickinson, San Jose, Calif., USA). The cells were passed at a rate of up to 1000 cells/second, using a 488 nm argon laser beam as the light source for excitation. Emission of 10^4 cells was measured using logarithmic amplification, and analyzed using the CellQuest software (Becton Dickinson). Determination of CD34+ cell content after expansion: The content of CD34+ cells was determined from a purified, re-selected fraction of expanded hematopoietic progenitor cells, using the MiniMACS CD34 progenitor cell isolation kit (Miltenyi Biotec) according to the manufacturers recommendations. In brief, mononuclear cells derived from one portion of the culture were subjected to two cycles of immunomagnetic bead separation. The purity of the CD34+ population thus obtained was 95-98%, as evaluated by flow cytometry. CD34+ cell content of the entire culture was calculated as follows: number of CD34+ cells recovered following repurification after expansion multiplied by the culture volume/volume of the portion of the culture subjected to repurification (CD34+total=CD34+ in sample×total culture volume/volume of repurified sample). Up to week three the cultures were topped weekly with fresh medium. Therefore, the culture volume was measured directly. From week three and on (due to demi-depopulation), the culture volume was calculating by multiplying the actual volume with the number of passages. Fold expansion was calculated by dividing the CD34+ cell content of the culture by the number of inoculated CD34+ cells (Fold expansion=total CD34+ content/CD34+ inoculated). […] Determination of early CD34+ cell subsets: The percentages of the early CD34+ cell subsets were determined as well from the re-purified CD34+ cell fraction. […]

The subject of series [5] is CD34+ cells. The series can be described thus: Nicotinamide supplementation of ex-vivo hematopoietic stem/progenitor cell cultures. It counts as cell-based, human. Conditions: for CD34+ cells per ml: 5 cytokines, re-selected. As for the experimental part:
Cultures were prepared and maintained as described above. Nicotinamide was added to cell cultures at concentrations of 1, 5 or 10 mM for up to three weeks culture period. All other procedures including mononuclear cell fraction collection and purification, purification of CD34^+ cells from mononuclear cell fractions, ex-vivo expansion of stem/progenitor cell populations, morphological assessment, surface antigen analysis, determination of CD34, CD38, Lin and other hematopoietic marker expression and cell population calculations were carried out as described in the experimental methods section of Example 1 above.
Hematopoietic CD34+ cell cultures were initiated in the presence of a combination of 5 cytokines, SCF, TPO, FLt3, IL-6 and IL-3, with or without different concentrations of nicotinamide. Following three weeks incubation period, the CD34+ cells were re-selected from culture by affinity re-purification method and were enumerated. […] In addition, the re-selected CD34+ cell fraction was FACS analyzed for stem/progenitor cell markers. The results, presented in FIGS. 15-17 and 18a-b, show substantial increases in the proportion of CD34+/CD38−, CD34+/Lin− and CD34+/(HLA-DR38−) cells in cultures treated with nicotinamide.

[6] abbreviates: Cytokines + Ly294002, two weeks.
Where [7] appears, read: Cytokines + Ly294002, two weeks, percentage of re-purified CD34+ cells.

Turning to `Cc1ccc(C2=CCC(C)(C)c3ccc(C#Cc4ccc(C(=O)O)cc4)cc32)cc1` [AGN 193109], the “increase in the pre-CFU-S population” value in series [1] is “approximately 6 fold”.

As to Gly-His-Lys [GHL], in the series on CD34 cells, the “effect on differentiation of CD34+ cells” value is given as “stimulate differentiation”. In series [2], the “decrease of cell number” value is given as 25% and the “decrease of clonogenic potential (CFUc)” value amounted to 78%.

In the case of Gly-Gly-His [GGH], the “effect on differentiation of CD34+ cells” value with CD34 cells is “stimulate differentiation”. Moreover, in series [2], the “decrease of cell number” value is listed as 10% and the “decrease of clonogenic potential (CFUc)” value was found to be 80%.

For the compound `O=c1cc(N2CCOCC2)oc2c(-c3ccccc3)cccc12` [LY294002], in series [3], the membrane permeability result is given as “membrane permeable”. In the series on CD34+ cells [4] (setting [6]), the “CD34 + CD38- ×10^4” value was 4.8 ×10^4, the “CD34 + Lin- ×10^4” value is 1.3 ×10^4, the “CD34 × 10^4” value is reported as 53 × 10^4 and the “TNC × 10^4” value is reported as 155 × 10^4. Besides, in the series on CD34+ cells [4] (setting [7]), the “CD34 + CD38- (%)” value was 9.1% and the “CD34 + Lin- (%)” value is 2.5%. Further, in the series with CD34+ cells [4] (two weeks), the “absolute content of CD34+CD38− cells” value is reported as 9×10^4 cells and the “absolute content of CD34+CD38−Lin− cells” value is 2.5×10^4 cells. Also, in the series on CD34+ cells [4] (two weeks, treated cultures), the “content of late progenitor, CD34+ cells” value is 65×10^4 cells. In addition, in the series on CD34+ cells [4] (two-weeks treatment), the “frequency of CD34+ cells among the total cultured cells” value came to 0.3.

`NC(=O)c1cccnc1` [Nicotinamide]: the “CD34+ cells per ml” value with CD34+ cells [5] (1 mM nicotinamide, three weeks) was 99×10^4 cells per ml. In the series with CD34+ cells [5] (1 mM, three weeks), the “increase in CD34+/CD38− cells density vs untreated control” value came out at 1.7 fold and the “increase in CD34+/Lin− cells density vs untreated control” value is on record as 10.5 fold. Besides, the “CD34+ cells per ml” value in the series with CD34+ cells [5] (5 mM nicotinamide, three weeks) was 180×10^4 cells per ml. Besides, in the series on CD34+ cells [5] (5 mM, three weeks), the “increase in CD34+/(HLA-DR38−) cells density vs untreated control” value was 11.5 fold, the “increase in CD34+/CD38− cells density vs untreated control” value is 51.7 fold and the “increase in CD34+/Lin− cells density vs untreated control” value came out at 205.5 fold. Besides, in the series with CD34+ cells [5] (Nicotinamide 5 mM), the “% of CD34^+/CD38^− of total cells” value stood at 9.69% and the “% of CD34^+/Lin^− of total cells” value was 4.11%. Moreover, in the series on CD34+ cells [5] (Nicotinamide 10 mM), the “% of CD34^+/CD38^− of total cells” value stood at 34.67% and the “% of CD34^+/Lin^− of total cells” value came out at 16.58%.
